Measured values as given in patent US20100130432A1, “Non-Natural Amino Acids and Neurotensin Analogues Thereof” (priority 2005, published 2010).
“Also recorded” adds a separate entry of the source. Like-named read-outs stand apart in the source and are kept apart here. Non-standard residues stand in square brackets, D forms with d. Residues, ends and D or L forms follow the SMILES beside them. *: point of attachment. Tle = CC(C)(C)[C@H](N)C(=O)O; X1 = C[C@@H](CCCCCN)C(=O)*

Columns and labels:
rats [1] = assay: d-Amphetamine induced hyperlocomotion / locomotor activity chambers; assay type: in vivo, rat
Description: Sound- and light-attenuated locomotor cages are used to measure the ability of potential candidates to decrease d-amphetamine-induced hyperactivity.
d-Amphetamine induced hyperlocomotion. Experimentally I male Sprague-Dawley rats were housed as described above. Rats were handled for three days prior to testing to minimize experimenter induced hyperlocomotion on test day. For experiments, sound- and light-attenuated automated photocell beam activity chambers (AccuScan Instruments, Inc., Columbus, Ohio) were used to measure locomotion. Cages were connected to a VersaMax Analyzer (AccuScan) in conjunction with an IBM computer using VersaMax 1.80-0146 software (AccuScan) to record vertical and horizontal activity. Total activity values recorded were the sum of vertical and horizontal activity. […]
Rats were placed in the activity chambers for 30 minutes to habituate and establish baseline activity levels. Then, rats were removed and given an IP or oral dose of peptide (N=7) or saline (N=8) and returned to the chamber to establish the peptide's effect on spontaneous activity levels. About 30 minutes after administration, rats were removed and given an IP injection of d-amphetamine (1 mg/kg) or vehicle and returned to the chamber for a further 1 hr to assess the effect of the peptide on induced hyperlocomotion.
Chronic Testing Protocols.
Separate two-factor ANOVAs for DOSE X TIME were performed for each different time-phase of the assay. Phases for the IP dosing and oral dosing experiments consisted of habituation (time points 10-60), drug (time points 70-120), and amphetamine (time points 130-240).

NTR-1 [2] = target: T1, NTR-1 (Homo sapiens, UniProt P30989); assay: Competitive NTR binding versus radiolabeled NT[8-13]
NTR-2 [3] = target: T2, NTR-2 (Homo sapiens, UniProt O95665); assay: as above
NTR-1 [4] = target: T1, NTR-1; assay: Functional agonism: induction of cAMP and inositol phosphate production; assay type: cell-based
NTR-2 [5] = target: T2, NTR-2; assay: as above; assay type: cell-based
[6] = Plasma stability, quantitative MALDI-MS assay; assay type: in vitro ADME
mouse bone marrow cells = assay: Micronucleus study; assay type: in vivo; details: initial data
Description: Genetic Toxicology. […] Experimental protocols are as follows.
In the micronucleus study, 90 CD-1 mice used in the study consisted of 10/sex/group in Groups 1-4 (control, low-, mid-, and high-dose) and 5/sex in the positive control group. Test peptide as administered orally, the positive control, Cyclophosphamide at 80 mg/kg, as administered orally. Approximately 24 and 48 hours after dosing, mice were killed and bone marrow obtained from both femurs. A slide of a bone marrow suspension was prepared, stained with Wright-Giemsa stain, dried, and scored blind. The number of polychromatic erythrocytes (PCE) among the total erythrocytes (PCE+normochromatic erythrocytes (NCE)) were determined for each animal by counting at least 200 erythrocytes. The number of micronucleated polychromatic erythrocytes (MPCE) then were scored for 2000 PCE per animal. A positive result was obtained, if there is a positive dose-response trend or statistically significant increase in the number of MPCE at one or more dose levels compared to controls.

[7] = Pharmacokinetics of ABS201 in blood/plasma (LC/MS/MS)
Description: (§1) At selected time points, blood was removed or brain harvested and the concentration of the peptide analog determined using LC/MS/MS.
(§2) These samples were then used for the determination of plasma and brain drug levels by LC/MS/MS for estimating BBB penetration and pharmacokinetic parameters.

[8] = Brain distribution of ABS201 (LC/MS/MS)
Description: as §1, §2

[9] = intra-stomach
Description: These samples were used for the determination of plasma drug by LC/MS/MS for estimating pharmacokinetic parameters and segmental absorption. The bioavailability of intra-stomach, intra-duodenum, intra-jejunum, intra-colon administration relative to intravenous administration and gavage was calculated.

Brattleboro rats = details: orally dosed
[10] = system: adrenergic (alpha1, alpha 2, beta), dopamine, histamine (H1, H2, H3), muscarinic (central, peripheral), nicotinic, opioid (nonselective), orphanin, serotonin …; details: 10^−9, 10^−7 10^−5 M
[11] = system: L5178Y TK+/−mouse lymphoma cells; details: initial data, with and without S9
[12] = target: hERG (human ether-a-go-go related gene) channels (Homo sapiens, UniProt Q12809); details: initial results
Description: hERG Assay. The objective of the hERG study is to assess the effects of the test article on the rapidly activating inward rectifying potassium current (IKr) conducted by hERG (human ether-a-go-go related gene) channels stably expressed in a HEK293 cell line. The method used is as follows. HEK293 cells, stably transfected with hERG cDNA, were used in the study. All experiments were performed at near-physiological temperature (35±2° C.). A positive control (60 nM terfenadine) was applied to two cells (n 2). Cells were be transferred to the recording chamber and superfused with HB-PS solution. The recording chamber and bathing solution were maintained at a temperature of 35±2° C. using a combination of in-line solution pre-heater, chamber floor heater, and feedback temperature controller. Bath temperature were measured using a thermistor probe.
Patch pipettes were made from glass capillary tubing using a P-97 micropipette puller (Sutter Instruments, CA). A commercial patch clamp amplifier was used for whole cell recordings. Before digitization, current records were low-pass filtered at one-fifth of the sampling frequency.
Cells stably expressing hERG were held at −80 mV.

[13] = 5 or 30 min incubation at 37° C.
rats [14] = system: rats
Description: Chronic Testing Protocols. […] Induced hypothermia was monitored and tested for significance as described above. […] The test protocol for day five was as described above.

in vivo = details: rat
rats [15] = assay: Maximum tolerated dose; details: rat, in vivo
rats [16] = assay: Catalepsy, horizontal bar test
Description: Cataleptic Analysis. […] To circumvent these potential confounding factors, tests are performed on an animal only once in a quiet, controlled environment.
Catalepsy Assessment. […] Rats were given an IP injection of peptide (5 mg/Kg), saline, or haloperidol (1 mg/kg). After 3 hours, catalepsy was measured using the horizontal bar test. Briefly, the front paws were placed directly on a horizontal bar 5 mm in diameter placed 7.5 cm above the cage floor. The rat was held in this position for 3 sec and then released. The time from release until the paws return to the cage floor was measured and recorded. A cut-off time of 30 sec was observed; this indicated a fully cataleptic animal as cataleptic animals are frozen to the bar. […] Measures were repeated every 30 min for 4 hr. Data are means±SEM (p<0.01).

T1 sequence (P30989 whole entry, species assumed): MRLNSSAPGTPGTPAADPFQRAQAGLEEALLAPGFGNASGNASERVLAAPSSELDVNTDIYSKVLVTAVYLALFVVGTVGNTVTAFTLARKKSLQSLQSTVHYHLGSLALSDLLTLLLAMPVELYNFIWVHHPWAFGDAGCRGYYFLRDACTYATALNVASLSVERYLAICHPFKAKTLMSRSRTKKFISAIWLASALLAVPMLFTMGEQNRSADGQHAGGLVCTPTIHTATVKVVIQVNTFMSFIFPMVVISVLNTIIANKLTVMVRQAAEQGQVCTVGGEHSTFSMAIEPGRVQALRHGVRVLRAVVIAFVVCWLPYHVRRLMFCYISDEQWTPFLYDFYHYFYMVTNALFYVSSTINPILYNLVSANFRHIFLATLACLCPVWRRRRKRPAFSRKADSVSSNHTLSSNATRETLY
T2 sequence (O95665 whole entry, species assumed): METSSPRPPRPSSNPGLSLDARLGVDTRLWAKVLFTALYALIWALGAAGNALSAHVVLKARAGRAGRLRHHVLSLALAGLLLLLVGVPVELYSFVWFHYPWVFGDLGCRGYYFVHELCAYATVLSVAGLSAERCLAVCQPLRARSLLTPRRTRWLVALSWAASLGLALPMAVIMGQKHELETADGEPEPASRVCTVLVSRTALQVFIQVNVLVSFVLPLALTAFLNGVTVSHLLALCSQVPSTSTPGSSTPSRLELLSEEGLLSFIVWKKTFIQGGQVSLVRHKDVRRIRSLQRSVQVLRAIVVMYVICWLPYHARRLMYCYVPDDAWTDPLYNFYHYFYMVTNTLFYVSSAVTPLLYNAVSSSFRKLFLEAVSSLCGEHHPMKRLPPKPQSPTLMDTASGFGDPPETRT
Sequence of hERG (human ether-a-go-go related gene) channels (Q12809 whole entry): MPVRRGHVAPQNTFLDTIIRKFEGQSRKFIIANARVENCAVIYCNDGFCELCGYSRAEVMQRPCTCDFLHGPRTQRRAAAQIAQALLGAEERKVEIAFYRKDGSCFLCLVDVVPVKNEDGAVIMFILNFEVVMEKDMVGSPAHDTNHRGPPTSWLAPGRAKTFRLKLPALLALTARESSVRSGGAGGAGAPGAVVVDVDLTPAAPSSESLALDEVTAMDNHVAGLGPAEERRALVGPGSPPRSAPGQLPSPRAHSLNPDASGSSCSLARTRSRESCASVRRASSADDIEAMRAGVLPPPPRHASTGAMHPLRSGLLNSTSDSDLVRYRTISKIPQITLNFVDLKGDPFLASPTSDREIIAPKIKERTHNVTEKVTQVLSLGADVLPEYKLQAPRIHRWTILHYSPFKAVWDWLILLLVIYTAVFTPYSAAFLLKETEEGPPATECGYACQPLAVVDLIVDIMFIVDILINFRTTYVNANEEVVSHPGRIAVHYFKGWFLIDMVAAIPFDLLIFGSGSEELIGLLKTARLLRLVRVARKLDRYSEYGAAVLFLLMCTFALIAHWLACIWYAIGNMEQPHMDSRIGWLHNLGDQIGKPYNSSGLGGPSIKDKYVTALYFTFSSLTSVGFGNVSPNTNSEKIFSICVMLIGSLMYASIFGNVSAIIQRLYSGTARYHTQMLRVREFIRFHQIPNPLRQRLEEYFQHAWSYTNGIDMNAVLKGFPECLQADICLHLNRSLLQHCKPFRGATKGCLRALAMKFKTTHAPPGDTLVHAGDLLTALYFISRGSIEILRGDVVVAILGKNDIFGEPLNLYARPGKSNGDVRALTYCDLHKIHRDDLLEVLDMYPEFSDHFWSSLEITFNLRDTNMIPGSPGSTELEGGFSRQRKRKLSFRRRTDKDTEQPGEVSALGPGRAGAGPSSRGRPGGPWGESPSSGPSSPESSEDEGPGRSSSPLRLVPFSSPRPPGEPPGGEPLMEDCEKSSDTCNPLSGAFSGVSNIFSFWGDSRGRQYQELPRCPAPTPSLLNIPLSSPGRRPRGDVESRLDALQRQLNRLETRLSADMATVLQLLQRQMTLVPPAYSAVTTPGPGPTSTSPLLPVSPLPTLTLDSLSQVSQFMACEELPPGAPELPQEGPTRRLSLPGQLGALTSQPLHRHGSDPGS

For CC(C)C[C@H](NC(=O)[C@@H](NC(=O)[C@H](Cc1ccc(O)cc1)NC(=O)[C@@H]1CCCN1C(=O)[C@H](CCCNC(=N)N)NC(=O)[C@@H](C)CCCCCN)C(C)(C)C)C(=O)O [ABS201, hLys-Arg-Pro-Tyr-t-Leu-Leu] (X1-RPY[Tle]L-OH), the “ED50 inhibition of amphetamine-induced hyperlocomotion” value (rats [1]; IP) was “about 1 mg/kg”, the “effect of repeated daily dosing on attenuation of d-amphetamine induced hyperlocomotion” value (rats [1]; IP 5 mg/kg daily, 5 days) was “had no effect” and the “spontaneous locomotor activity, drug phase” value (rats [1]; IP, all dose groups) was “responded significantly lower than saline during the drug phase”. The “effect on d-amphetamine induced hyperactivity” value (rats [1]; IP, all doses) was “significantly reduced hyperlocomotion for all doses tested”, the “spontaneous locomotor activity, drug phase” value (rats [1]; oral 10, 20, 30 mg/kg) was “only the 10 and 30 mg/kg doses reduced spontaneous locomotor activity” and the “effect on d-amphetamine induced hyperlocomotion” value (rats [1]; oral 10-30 mg/kg, time points 140-180) was “reduced locomotor activity”. For the same compound, the EC50 (NTR-1 [2]) was 3.92 ± 0.01 nM, the IC50 (NTR-1 [2]) was 11.2 ± 0.3 nM and the “affinity for the target receptor (NTR1)” value (NTR-1 [2]) was “nM affinity”. For the same compound, the “binds less effectively than its parent” value (NTR-1 [2]) was 50 fold, the NTR-2 affinity (NTR-2 [3]) was “sub-micromolar” and the “Functional NTR-1 Agonist” value (NTR-1 [4]) was “Yes”. For the same compound, the “Functional NTR-2 Agonist” value (NTR-2 [5]) was “Yes”, the half-life [6] was greater than 167 h and the micronucleus study result (mouse bone marrow cells) was “inactive”. For the same compound, the “time by which plasma levels decreased below the LLOD” value ([7]; IV 1 mg/kg) was no more than 45 min, the “clearance as % of rat hepatic blood flow” value ([7]; IV 5 mg/kg) was 74.02% and the “time measurable in whole blood” value ([7]; IV 5 mg/kg) was “up to 120 minutes”. For the same compound, the “time detectable in the blood and brain” value ([7]; IV 5 mg/kg and oral 50 mg/kg) was “up to 120 minutes”, the plasma levels ([7]; oral 30 mg/kg) was “below the LLOD at all times” and the “levels in whole blood” value ([7]; oral 50 mg/kg) was “below the LLOD at all times”. For the same compound, the Vd ([7]; rat, in vivo, iv, 5 mg/kg) was 0.87 ± 0.27 L/kg, the clearance ([7]; rat, in vivo, iv, 5 mg/kg) was 40.8 mL/min/kg and the levels in brain ([8]; IV 1 mg/kg and PO 30 mg/kg) was “below the LLOD at all times”. For the same compound, the levels in brain ([8]; IV 5 mg/kg) was “below the LLOD at all times”, the levels in brain ([8]; oral 50 mg/kg, 15 minutes post administration) was “detected in brains of 2 of 3 animals” and the “uptake in the stomach” value [9] was “Virtually no ABS201 is taken up in the stomach”. The “reversal of PPI deficit” value (Brattleboro rats) was “reverses PPI”, the “displacement of the receptors' endogenous substrate” value [10] was “No displacement” and the “mouse lymphoma study result” value [11] was “inactive”. The hERG study result [12] was “inactive”, the “binding to plasma proteins” value [13] was “little or no binding” and the “Toxicity, dose without toxicity” value (single acute dose I.P.) was “(>100 x ED50)”. The Toxicity (single acute dose at 100x ED50 I.P.) was “No”, the “dose tolerance” value (rats [14]; 10x ED50 administered daily over 5 days) was “No” and the dose tolerance (rats [14]; I.P. 5 days at 5× the ED50, hypothermia and amphetamine-induced locomotion) was “not observed”. The antinociception (rats [14]; summary of behavioral effects) was “not antinociceptive”, the MTD at 48 hr (in vivo; iv) was no less than 100 mg/kg and the MTD at 48 hr (in vivo; po) was no less than 500 mg/kg. The “lower limit for the MTD” value (rats [15]) was no less than 100 times the ED50, the catalepsy (rats [16]; IP 5 mg/kg, 5 mg/kg) was “does not induce catalepsy; also recorded: does not induce a cataleptic state” and the catalepsy (rats [16]; Table 11) was “No”.
